According to patent US20140193802A1, “IDENTIFICATION OF AN ALTERED THERAPEUTIC SUSCEPTIBILITY TO ANTI-HCMV COMPOUNDS AND OF A RESISTANCE AGAINST ANTI-HCMV COMPOUNDS” (priority 2012, published 2014):
Where two headings read alike, the source gives them in different places.

Columns and labels:
Type in all cases: cell-based, human cytomegalovirus (HCMV)
RV-HG (wt-HCMV) = test: HCMV fluorescence reduction assay (GFP-RA)
Description: (§1) HCMV Fluorescence Reduction Assay (GFP-RA)
(§2) The susceptibilities of recombinant HCMV laboratory strains expressing GFP were determined by a GFP-based fluorescence reduction assay. For standard assays, 1.5×10^4 NHDF cells/well were cultured in black 96-well plates (Greiner Bio-One, Germany) and infected with either HCMV-GFP (MOI, 0.1) or RV-HG (MOI, 0.2 to 0.5). After virus adsorption, the virus inoculum was replaced with 200 μl fresh medium. Thereafter, 100 μl medium containing the test compounds was added to wells of horizontal row G, followed by serial 3-fold dilutions up to row A. All drug concentrations were tested at least in duplicate. Wells of the horizontal row H served as the virus control. Plates were incubated at 37° C. for 7 days. The medium was replaced by 200 μl PBS, and GFP units (GFPU) were determined by a charge-coupled-device-camera-based fluorescence detector (FluoBox; Bayer Technology Services GmbH, Leverkusen, Germany), which captures 96 images simultaneously. Drug effects were calculated as a percentage of reduction in GFPU in the presence of each drug concentration compared to the GFPU determined in the absence of drug. EC50 and EC90 values (drug concentrations producing 50% and 90% reduction in GFPU) were calculated using nonlinear regression curve fit with a variable slope. GraphPad Prism 3.02 or 4.0 software (GraphPad Software Inc., La Jolla, Calif.) was used for all analyses.
(§3) The HCMV AD169-derived bacterial artificial chromosome (BAC) pHG served as the backbone for the construction of the mutant viruses. The markerless introduction of point mutations into pHG was done using a two-step recombination protocol according to the en passant method. Briefly, a recombination fragment containing the I-SceI-AphAI cassette from plasmid pEPKan-S was obtained by PCR using primers containing ˜60 bp of homology to the intended integration site in ORF UL56 of BAC pHG and ˜20 bp specific for pEPKan-S. This fragment was electroporated into Escherichia coli GS1783 that harbored the pHG BAC. […] After successful kanamycin selection, all non-HCMV sequences were removed by an intrabacterial ISceI digest and a subsequent second Red recombination, resulting in the scarless repair of the mutated UL56 gene in the background of BAC pHG. The integrity of the generated BACs was confirmed by restriction enzyme digestion and sequencing. To reconstitute virus mutants, the recombinant BACs were transfected into permissive MRC5 cells. At least two independent virus clones per mutation were generated and evaluated.

RV-HG UL56-C325Yrev = test: GFP-RA, marker transfer revertant
Description: as §1, §2, §3

RV-HG UL56-R369M = test: GFP-RA, marker transfer mutant; settings: for Resistance index (RI) = EC50 indicated RV-HG mutant/EC50 RV-HG wt: RV-HG UL56-R369M vs RV-HG wt
Description: as §1, §2, §3

RV-HG UL56-L241P = test: GFP-RA, marker transfer mutant
Description: as §1, §2, §3

RV-HG UL56-R369S = test: GFP-RA, marker transfer mutant
Description: as §1, §2, §3

RV-HG UL56-C325Y = test: GFP-RA, marker transfer mutant
Description: as §1, §2, §3

RV-HG UL56-V236M = test: GFP-RA, marker transfer mutant
Description: as §1, §2, §3

RV-HG UL56-L241P/R369S = test: GFP-RA, marker transfer mutant; settings: for Resistance index (RI) = EC50 indicated RV-HG mutant/EC50 RV-HG wt: RV-HG UL56-L241P/R369S vs RV-HG wt
Description: as §1, §2, §3

RV-HG UL56-V231L = test: GFP-RA, marker transfer mutant
Description: as §1, §2, §3

RV-HG-UL56 mutants = test: GFP-RA, drug susceptibility profile of the virus mutants; settings: fluorescence reduction assays; for BAY 38-4766 and BDCRB with the exception of the strain carrying UL56 R369M
Description: as §1, §2
as §3, with “The integrity of the generated BACs was confirmed by restriction enzyme digestion and sequencing.” left out

[1] = Human betaherpesvirus 5, RV-HG (wt-HCMV), fluorescence reduction assay, mean ± SD, read-out: EC50
[2] = Human betaherpesvirus 5, RV-HG UL56-C325Yrev, fluorescence reduction assay, mean ± SD, read-out: EC50
[3] = Human betaherpesvirus 5, RV-HG UL56-R369M, fluorescence reduction assay, mean ± SD, read-out: EC50
[4] = Human betaherpesvirus 5, RV-HG UL56-L241P, fluorescence reduction assay, mean ± SD, read-out: EC50
[5] = Human betaherpesvirus 5, RV-HG UL56-R369S, fluorescence reduction assay, mean ± SD, read-out: EC50
[6] = Human betaherpesvirus 5, RV-HG UL56-C325Y, fluorescence reduction assay, mean ± SD, read-out: EC50
[7] = Human betaherpesvirus 5, RV-HG UL56-V236M, fluorescence reduction assay, mean ± SD, read-out: EC50
[8] = Human betaherpesvirus 5, RV-HG UL56-L241P/R369S, fluorescence reduction assay, mean ± SD, read-out: EC50
[9] = Human betaherpesvirus 5, RV-HG UL56-V231L, fluorescence reduction assay, mean ± SD, read-out: EC50

Compound	EC50 (RV-HG (wt-HCMV); [1])	EC50 (RV-HG UL56-C325Yrev; [2])	EC50 (RV-HG UL56-R369M; [3])	EC50 (RV-HG UL56-L241P; [4])	EC50 (RV-HG UL56-R369S; [5])	EC50 (RV-HG UL56-C325Y; [6])	EC50 (RV-HG UL56-V236M; [7])	EC50 (RV-HG UL56-L241P/R369S; [8])	EC50 (RV-HG UL56-V231L; [9])	sensitivity of the RV-HG-UL56 mutants compared with the parental wild-type virus RV-HG (RV-HG-UL56 mutants)	also measured
Nc1ccn(C[C@@H](CO)OCP(=O)(O)O)c(=O)n1 [Cidofovir]	250 ± 170 nM	320 ± 130 nM	180 ± 110 nM	210 ± 90 nM	160 ± 50 nM	350 ± 50 nM	260 ± 180 nM	200 ± 110 nM	90 ± 20 nM	did not differ	–
O=C(O)P(=O)(O)O [Foscarnet]	111000 ± 55000 nM	178000 ± 12000 nM	76000 ± 25000 nM	115000 ± 71000 nM	61000 ± 21000 nM	126000 ± 20000 nM	76000 ± 35000 nM	62000 ± 30000 nM	–	did not differ	EC50 (RV-HG UL56-V231L; Human betaherpesvirus 5): 67000 ± 18000 nM
CN(C)c1cccc2c(S(=O)(=O)Nc3ccc(NC(=O)C(C)(C)CO)cc3)cccc12 [BAY384766]	410 ± 150 nM	580 ± 60 nM	–	340 ± 140 nM	–	1070 ± 140 nM	330 ± 80 nM	–	360 ± 80 nM	comparably active	EC50 (RV-HG UL56-R369M; Human betaherpesvirus 5): 1750 ± 160 nM; Resistance index (RI) = EC50 indicated RV-HG mutant/EC50 RV-HG wt (RV-HG UL56-R369M): 4; EC50 (RV-HG UL56-R369S; Human betaherpesvirus 5): 680 ± 130 nM; EC50 (RV-HG UL56-L241P/R369S; Human betaherpesvirus 5): 840 ± 310 nM; Resistance index (RI) = EC50 indicated RV-HG mutant/EC50 RV-HG wt (RV-HG UL56-L241P/R369S): 2
N#CC1(C(=O)Nc2cc(F)cc(NS(=O)(=O)c3ccc(-c4noc(-c5cccc(N)n5)n4)cc3)c2)CC1 [Formula (X), N-{3-[({4-[5-(6-Aminopyridin-2-yl)-1,2,4-oxadiazol-3-yl]phenyl}sulfonyl)amino]-5-fluorophenyl}-1-cyanocyclopropanecarboxamide]	14.1 ± 7.9 nM	31.7 ± 2.4 nM	96 ± 18 nM	18.3 ± 10 nM	29.5 ± 13.7 nM	36.7 ± 3.9 nM	8.6 ± 1.3 nM	41.6 ± 18 nM	7.1 ± 1.2 nM	–	Resistance index (RI) = EC50 indicated RV-HG mutant/EC50 RV-HG wt (RV-HG UL56-R369M): 7; Resistance index (RI) = EC50 indicated RV-HG mutant/EC50 RV-HG wt (RV-HG UL56-R369S; RV-HG UL56-R369S vs RV-HG wt): 2; Resistance index (RI) = EC50 indicated RV-HG mutant/EC50 RV-HG wt (RV-HG UL56-L241P/R369S): 3
OC[C@H]1O[C@@H](n2c(Br)nc3cc(Cl)c(Cl)cc32)[C@H](O)[C@@H]1O [BDCRB]	–	–	–	–	–	–	–	–	–	comparably active	EC50 (RV-HG (wt-HCMV); RV-HG (wt-HCMV), fluorescence reduction assay, mean ± SD, read-out: EC50): 330 ± 120 nM; EC50 (RV-HG UL56-C325Yrev; RV-HG UL56-C325Yrev, fluorescence reduction assay, mean ± SD, read-out: EC50): 290 ± 40 nM; EC50 (RV-HG UL56-R369M; RV-HG UL56-R369M, fluorescence reduction assay, mean ± SD, read-out: EC50): 110 ± 50 nM; EC50 (RV-HG UL56-L241P; RV-HG UL56-L241P, fluorescence reduction assay, mean ± SD, read-out: EC50): 270 ± 40 nM; EC50 (RV-HG UL56-R369S; RV-HG UL56-R369S, fluorescence reduction assay, mean ± SD, read-out: EC50): 190 ± 20 nM; EC50 (RV-HG UL56-C325Y; RV-HG UL56-C325Y, fluorescence reduction assay, mean ± SD, read-out: EC50): 300 ± 40 nM; EC50 (RV-HG UL56-V236M; RV-HG UL56-V236M, fluorescence reduction assay, mean ± SD, read-out: EC50): 170 ± 30 nM; EC50 (RV-HG UL56-L241P/R369S; RV-HG UL56-L241P/R369S, fluorescence reduction assay, mean ± SD, read-out: EC50): 300 ± 140 nM; EC50 (RV-HG UL56-V231L; RV-HG UL56-V231L, fluorescence reduction assay, mean ± SD, read-out: EC50): 210 ± 40 nM
Nc1nc2c(ncn2COCCO)c(=O)[nH]1 [Aciclovir]	–	–	88000 ± 29000 nM	–	45000 ± 10000 nM	–	–	81000 ± 33000 nM	29000 ± 9000 nM	–	EC50 (RV-HG (wt-HCMV); Human betaherpesvirus 5): 74000 ± 40000 nM; EC50 (RV-HG UL56-C325Yrev; Human betaherpesvirus 5): 55000 ± 18000 nM; EC50 (RV-HG UL56-L241P; Human betaherpesvirus 5): 53000 ± 12000 nM; EC50 (RV-HG UL56-C325Y; Human betaherpesvirus 5): 49000 ± 16000 nM; EC50 (RV-HG UL56-V236M; Human betaherpesvirus 5): 80000 ± 21000 nM
CC(C)Nc1nc2cc(Cl)c(Cl)cc2n1[C@H]1O[C@@H](CO)[C@H](O)[C@@H]1O [Maribavir]	180 ± 110 nM	180 ± 70 nM	–	140 ± 70 nM	80 ± 30 nM	290 ± 140 nM	–	–	–	–	–
